From patent US20240374749A1, “ANTIBODY-EXATECAN CONJUGATES” (Glykos Finland Oy, priority 2023, published 2024)
Like-named read-outs stand apart in the source and are kept apart here.

Experiments:
MOLM-13 cells = assay: MOLM-13 xenograft model; details: for signs of toxicity: single i.v. dose, clinical signs and general behavior
Procedure: The study was performed at the TCDM, University of Turku, Finland, according to the appropriate ethical committee approval. Cells for inoculation to mice were prepared in vigorous exponential growth phase. 2 million MOLM-13 cells in 50% Matrigel were inoculated s.c. to the flank of each mouse (female athymic nude mice between 8-10 weeks of age). Clinical signs and general behavior of the animals were observed regularly. […] Tumor growth was followed by palpation. After caliper measurement, tumor volume was calculated according to 0.5×length×width^2. […] Mice were evenly divided into study groups, 6 mice in each group, so that each group received similar distribution of different-sized tumors and the average tumor volumes were similar in each group. Intravenous (i.v.) treatment in PBS was given once on day 1 of treatment as a single dose regimen (on day 8 after tumor inoculation). The experiment lasted to day 46 after treatment (day 54 after tumor inoculation).

[1] = test system: HER2+ SK-BR-3 breast cancer cells; assay: In vitro cytotoxicity assay (PrestoBlue), Example 9 (FIG. 5); assay type: cell-based; details: Homo sapiens
Procedure: (§1) HER2+ SK-BR-3 breast cancer cells (ATCC), HCC1954 breast cancer cells (CRL-2338, ATCC), JIMT-1 breast cancer cells (DSMZ) and SKOV-3 ovarian cancer cells (ATCC) were cultured essentially according to the providers' instructions. After incubation with ADCs, cell viability was determined using PrestoBlue reaction using manufacturer's instructions. Cell viability data data was transferred to GraphPad Prism to determine IC50 values. Exatecan (mesylate salt) and DXd (free deruxtecan payload) were purchased from MedChemExpress.

[2] = test system: HER2+ HCC1954 breast cancer cells; assay: In vitro cytotoxicity assay (PrestoBlue), Example 9 (FIG. 6); assay type: cell-based; details: Homo sapiens
Procedure: as §1

[3] = test system: HER2+ JIMT-1 breast cancer cells; assay: In vitro cytotoxicity assay (PrestoBlue), Example 9 (FIG. 7); assay type: cell-based; details: Homo sapiens
Procedure: as §1

[4] = test system: HER2+ SKOV-3 ovarian cancer cells; assay: In vitro cytotoxicity assay (PrestoBlue), Example 9 (FIG. 8); assay type: cell-based; details: Homo sapiens, SK-OV-3
Procedure: as §1

[5] = Aggregation status by size-exclusion chromatography (SEC-HPLC); assay type: physicochemical
Procedure: Aggregation status of FLExM01 was evaluated by size-exclusion chromatography (SEC-HPLC; FIG. 2A), showing very low aggregation with high-molecular weight aggregate level of 1.6%. Drug-to-Antibody Ratio (DAR) was determined by reversed-phase chromatography (RP-HPLC; FIG. 2B), showing homogeneous conjugation to DAR=8.

[6] = Hydrophobic interaction chromatography (HIC-HPLC) of flanvotumab ADCs; assay type: physicochemical; details: closer to naked antibody = more hydrophilic
Excerpt: Flanvotumab-deruxtecan ADC was generated essentially similarly as FLExM above using deruxtecan linker-payload (DxM, MedChemExpress, Sweden; Scheme 1.4).
HIC-HPLC analysis using TSKgel ButylNPR column was done with Äkta HPLC purifier system.

SK-MEL-30 melanoma cells = assay: SK-MEL-30 human melanoma xenograft model; assay type: in vivo, athymic mice; details: single i.v. 10 mg/kg dose
Procedure: SK-MEL-30 human melanoma xenograft model (FIG. 4A): The animal model were performed at the University of Helsinki, Finland, according to the appropriate ethical committee approval. SK-MEL-30 melanoma cells, 2 million cells/mouse, were inoculated subcutaneously (s.c.) to athymic mice.

[7] = Maleimide self-stabilization in storage formulation; assay type: physicochemical; details: storage formulation of PBS pH 7.4
[8] = single i.v. 10 mg/kg dose, day 54 after inoculation

Molecule: Lintuzumab: humanized recombinant antibody produced in CHO cells; anti-CD33
- tumor growth inhibition (in words) (MOLM-13 cells; single i.v. 10 mg/kg dose, s.c. tumors about 120 mm^3): only slight inhibitory activity to tumor growth
- signs of toxicity (MOLM-13 cells): No signs of toxicity were recorded

Molecule: LNDxM: lintuzumab-deruxtecan ADC DAR=8, maleimides not stabilized; 01-03 are batches [reference compound]
- deaths due to tumor growth, % (MOLM-13 cells; single i.v. 10 mg/kg dose): 17%
- tumor-free mice at the end of the study (mice out of 6) (MOLM-13 cells; [8]): 2/6
- tumor-free mice at the end of the study, % (MOLM-13 cells; [8]): 33%
- deaths due to tumor growth (mice out of 6) (MOLM-13 cells; single i.v. 10 mg/kg dose, death on day 47 after tumor inoculation): ⅙
- signs of toxicity (MOLM-13 cells): No signs of toxicity were recorded

Molecule: CC[C@@]1(O)C(=O)OCc2c1cc1n(c2=O)Cc2c-1nc1cc(F)c(C)c3c1c2[C@@H](N)CC3 [exatecan, Exatecan]
- IC50 [1]: 0.87 nM
- IC50 ([2]; HCC1954 cells, FIG. 6, read-out: IC50): 5 to 8 nM
- IC50 [3]: 3.1 nM
- IC50 [4]: 4.7 nM

Molecule: CC[C@@]1(O)C(=O)OCc2c1cc1n(c2=O)Cc2c-1nc1cc(F)c(C)c3c1c2[C@@H](NC(=O)CO)CC3 [DXd, 2-hydroxyacetoyl exatecan]
- IC50 [1]: 4.3 nM
- IC50 ([2]; HCC1954): 5 to 8 nM
- IC50 [3]: 18 nM
- IC50 [4]: 9.5 nM

B1: FLExM01: flanvotumab-exatecan ADC with ExM linker-payload, DAR≈8 (conjugate, chains of the INN, looked up)
VH: QVQLVQSGSELKKPGASVKISCKASGYTFTSYAMNWVRQAPGQGLESMGWINTNTGNPTYAQGFTGRFVFSMDTSVSTAYLQISSLKAEDTAIYYCAPRYSSSWYLDYWGQGTLVTVSS
VL: EIVLTQSPATLSLSPGERATLSCRASQSVSSYLAWYQQKPGQAPRLLIYDASNRATGIPARFSGSGSGTDFTLTISSLEPEDFAVYYCQQRSNWLMYTFGQGTKLEIK
modifications: exatecan ExM linker-payload, DAR 8
- high-molecular weight aggregate level ([5]; SEC-HPLC): 1.6%
- HIC-HPLC elution volume [6]: 6.5 mL
- toxicities observed (SK-MEL-30 melanoma cells): No toxicities were observed
- tumor growth inhibition (in words) (SK-MEL-30 melanoma cells; s.c. tumors about 200 mm^3): inhibited markedly more in the ADC-treated mice than either the antibody-treated or non-treated mice
- maleimide self-stabilization (in words) [7]: self-stabilized by maleimide hydrolysis

B2: FLDxM01: Flanvotumab-deruxtecan ADC, DAR≈8 (conjugate, chains of the INN, looked up)
VH: QVQLVQSGSELKKPGASVKISCKASGYTFTSYAMNWVRQAPGQGLESMGWINTNTGNPTYAQGFTGRFVFSMDTSVSTAYLQISSLKAEDTAIYYCAPRYSSSWYLDYWGQGTLVTVSS
VL: EIVLTQSPATLSLSPGERATLSCRASQSVSSYLAWYQQKPGQAPRLLIYDASNRATGIPARFSGSGSGTDFTLTISSLEPEDFAVYYCQQRSNWLMYTFGQGTKLEIK
modifications: deruxtecan, DAR 8
- aggregates (in words) ([5]; MALDI-TOF MS, SEC-HPLC and RP-HPLC): low aggregates
- HIC-HPLC elution volume [6]: 7.8 mL

B3: Flanvotumab: naked antibody, parent of the anti-TYRP-1 ADC (antibody, chains of the INN, looked up, V domains shown)
VH: QVQLVQSGSELKKPGASVKISCKASGYTFTSYAMNWVRQAPGQGLESMGWINTNTGNPTYAQGFTGRFVFSMDTSVSTAYLQISSLKAEDTAIYYCAPRYSSSWYLDYWGQGTLVTVSS
VL: EIVLTQSPATLSLSPGERATLSCRASQSVSSYLAWYQQKPGQAPRLLIYDASNRATGIPARFSGSGSGTDFTLTISSLEPEDFAVYYCQQRSNWLMYTFGQGTKLEIK
- toxicities observed (SK-MEL-30 melanoma cells): No toxicities were observed
